Read-outs that look alike come from different tables or passages of the source. Each block holds one molecule with its values, some of them ahead of it. Starred links: 1 amine or outer side, 2 acyl side, 3 side chain; linkers in the order of their positions; H or OH if unused. Positions of bridges follow the written chain, without caps; N, C: chain ends. Non-standard residues stand in square brackets, D forms with d. Residues, ends and D or L forms follow the SMILES beside them. Chains are numbered I, II in the order given. Hexamethylenediamine = C(CCCN[*:2])CCN[*:1]; Dip = N[C@H](C(=O)O)C(c1ccccc1)c1ccccc1; Chg = N[C@H](C(=O)O)C1CCCCC1; NMeA = CN[C@@H](C)C(=O)O
Experiments:
BIRC2-BIR3 domain [1] = biological target: T1, BIRC2-BIR3 domain (Homo sapiens, UniProt Q13490); assay: Fluorescence polarization (FP) competition assay with fluorescent SMAC probe; format: binding; set-up: BIRC2-BIR3 domain (260–352) was expressed; His6 (N, cleaved yes); GST (N, cleaved yes); made in house; host or cells: E. coli; details: read-out: FP Assay K I Values
Description: Resulting data was plotted using GraphPad Prism 9.3 software and analyzed using a nonlinear fit to calculate the probe IC50. […] Compounds were titrated from 20 μM to 20 nM using an ECHO 550 acoustic dispenser (Labcyte) incubated for 1 h at room temperature and subsequent read out.
The assay is based on the displacement of a fluorescent SMAC mimetic from the binding site.

BIRC4 = BIRC4 (Homo sapiens, UniProt P98170); assay: NanoBRET cellular target engagement, full-length BIRC4
Description: (§1) In brief: Constructs contained the cDNA of full-length or single domains cloned in frame with an N-terminal NanoLuc-fusion as specified in Supplementary Table S2. Plasmids were transfected into HEK293T cells using FuGENE HD (Promega, E2312) and proteins were allowed to express for 20 h. […] The corresponding transfected cells were added and reseeded at a density of 2.5^5 cells/mL after trypsinization and resuspending in Opti-MEM without phenol red (Life Technologies). […] Competitive displacement data were then graphed using GraphPad Prism 9.3 software using a normalized 3-parameter curve fit with the following equation: Y = 100/(1 + 10^(X-LogIC50)).

BIRC3 BIR3 = BIRC3 BIR3 (Homo sapiens, UniProt Q13489); assay: NanoBRET cellular target engagement, single domain BIRC3 BIR3
Description: as §1

BIRC2-BIR3 domain [2] = biological target: T1, BIRC2-BIR3 domain; assay: Isothermal titration calorimetry (ITC); format: binding; set-up: BIRC2-BIR3 domain (260–352) was expressed; His6 (N, cleaved yes); GST (N, cleaved yes); made in house; host or cells: E. coli; details: 25°C; for Kd: duplicates, mean ± SD, read-out: K D Measured in ITC
Description: For this protocol, the chamber was pre-equilibrated with the test compound, and the BIRC2-BIR3 domain was titrated in while continuously measuring the rate of exothermic heat evolution. The heat of binding was integrated, corrected, and fitted to an independent single-binding site model based on the manufacturer’s instructions, from which thermodynamic parameters (ΔH and TΔS), equilibrium association and dissociation constants (K A and K D, respectively), and stoichiometry (n) were calculated.

BIRC3 = BIRC3 (Homo sapiens, UniProt Q13489); assay: NanoBRET cellular target engagement, full-length BIRC3
Description: as §1

BIRC3 BIR2 = BIRC3 BIR2 (Homo sapiens, UniProt Q13489); assay: NanoBRET cellular target engagement, single domain BIRC3 BIR2
Description: as §1

BIRC2 BIR3 = BIRC2 BIR3 (Homo sapiens, UniProt Q13490); assay: NanoBRET cellular target engagement, single domain BIRC2 BIR3
Description: as §1

BIRC7 BIR = biological target: T2, BIRC7 BIR (Homo sapiens, UniProt Q96CA5); assay: NanoBRET cellular target engagement, single domain BIRC7 BIR
T2 sequence (Q96CA5 70-176): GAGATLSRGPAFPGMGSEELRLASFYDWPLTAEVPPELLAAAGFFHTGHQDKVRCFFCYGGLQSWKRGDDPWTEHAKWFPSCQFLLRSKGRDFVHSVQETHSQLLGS
Description: as §1

BIRC7 = biological target: T3, BIRC7 (Homo sapiens, UniProt Q96CA5); assay: NanoBRET cellular target engagement, full-length BIRC7
T3 sequence (Q96CA5 1-298): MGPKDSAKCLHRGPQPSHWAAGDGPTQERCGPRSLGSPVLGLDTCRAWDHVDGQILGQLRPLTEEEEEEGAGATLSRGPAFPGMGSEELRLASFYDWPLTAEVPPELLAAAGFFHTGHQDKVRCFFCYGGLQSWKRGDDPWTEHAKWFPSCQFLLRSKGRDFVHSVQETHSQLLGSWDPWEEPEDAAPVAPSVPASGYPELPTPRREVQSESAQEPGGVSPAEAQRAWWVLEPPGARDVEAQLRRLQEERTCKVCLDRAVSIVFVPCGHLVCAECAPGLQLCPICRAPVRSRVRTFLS

BIRC8 = biological target: T4, BIRC8 (Homo sapiens, UniProt Q96P09); assay: NanoBRET cellular target engagement, full-length BIRC8
T4 sequence (Q96P09 1-236): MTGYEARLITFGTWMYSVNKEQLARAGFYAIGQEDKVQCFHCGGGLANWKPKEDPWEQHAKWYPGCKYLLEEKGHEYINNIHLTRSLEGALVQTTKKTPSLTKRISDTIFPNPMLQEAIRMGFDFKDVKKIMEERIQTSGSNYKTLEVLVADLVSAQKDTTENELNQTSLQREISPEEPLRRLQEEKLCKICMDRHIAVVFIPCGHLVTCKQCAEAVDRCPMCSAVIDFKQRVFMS
Description: as §1

BIRC8 BIR = biological target: T5, BIRC8 BIR (Homo sapiens, UniProt Q96P09); assay: NanoBRET cellular target engagement, single domain BIRC8 BIR
T5 sequence (Q96P09 1-90): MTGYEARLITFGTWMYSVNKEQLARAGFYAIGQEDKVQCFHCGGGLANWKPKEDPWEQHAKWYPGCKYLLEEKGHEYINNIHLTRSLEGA
Description: as §1

BIRC2-BIR3 domain [3] = biological target: T1, BIRC2-BIR3 domain; set-up: BIRC2-BIR3 domain (260–352) was expressed; His6 (N, cleaved yes); GST (N, cleaved yes); made in house; host or cells: E. coli; details: read-out: Literature FP Assay K I Values, cited from earlier work
BIRC1 BIR[2] = biological target: T6, BIRC1 BIR[2] (Homo sapiens, UniProt Q13075); assay: NanoBRET cellular target engagement, single domain BIRC1 BIR[2]
T6 sequence (Q13075 139-251): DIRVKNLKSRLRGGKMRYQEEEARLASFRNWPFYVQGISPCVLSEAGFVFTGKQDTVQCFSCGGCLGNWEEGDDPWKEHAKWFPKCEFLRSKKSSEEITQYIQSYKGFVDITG

BIRC2-BIR3 domain [4] = biological target: T1, BIRC2-BIR3 domain; assay: Differential scanning fluorimetry (DSF); details: for ΔTm [°C] (Supplementary Table S1): technical replicate
Description: Purified proteins were buffered in DSF buffer (25 mM HEPES pH 7.5, 500 mM NaCl) and were assayed in a 384-well plate (Thermo, #BC3384) with a final protein concentration of 20 μM in 10 μL final assay volume. Inhibitors were added in excess to a final concentration of 40 μM, using an ECHO 550 acoustic dispenser (Labcyte). As a fluorescent probe, SYPRO-Orange (Molecular Probes) was used at 5x final concentration. […] Data was analyzed using Boltzmann-equation in the Protein Thermal Shift software (Applied Biosystems). Samples were measured in technical triplicates.
The assay was run in the presence of DMSO to exclude DMSO influences towards melting temperature differences when testing small molecules (Figures 2C,D).

BIRC2 = BIRC2 (Homo sapiens, UniProt Q13490); assay: NanoBRET cellular target engagement, full-length BIRC2
Description: as §1

BIRC2 BIR2 = BIRC2 BIR2 (Homo sapiens, UniProt Q13490); assay: NanoBRET cellular target engagement, single domain BIRC2 BIR2
[5] = biological target: T7, BIRC2-BIR3 domain (260-352) (human, UniProt Q13490 260-352); assay: fluorescence polarisation; BIRC2-BIR3 titrated from 40 uM to 600 pM into 30 nM FAM-labelled SMAC probe; 50 mM HEPES pH 7.5, 150 mM NaCl, 5% glycerol, 1 mM TCEP, 0.05% TWEEN20; 1 h at room temperature; details: both partners purified
T7 construct: BIR3 domain of human BIRC2 (cIAP1), residues 260-352; The expression tag was cleaved with TEV protease; also called BIR3 domain of BIRC2; not shown: His6, N-terminal, cleaved; GST, N-terminal, cleaved
T7 sequence (Q13490 260-352): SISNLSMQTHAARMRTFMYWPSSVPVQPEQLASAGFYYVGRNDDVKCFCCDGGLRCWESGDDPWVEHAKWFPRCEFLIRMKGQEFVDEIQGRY

T1 sequence (Q13490 260-352): as above
BIRC2 BIR2, sequence (Q13490 165-267): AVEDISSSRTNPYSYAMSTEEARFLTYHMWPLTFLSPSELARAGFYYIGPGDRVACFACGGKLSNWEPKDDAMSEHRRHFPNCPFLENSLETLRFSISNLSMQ
BIRC4, sequence (P98170 whole entry, the tested form may be a part): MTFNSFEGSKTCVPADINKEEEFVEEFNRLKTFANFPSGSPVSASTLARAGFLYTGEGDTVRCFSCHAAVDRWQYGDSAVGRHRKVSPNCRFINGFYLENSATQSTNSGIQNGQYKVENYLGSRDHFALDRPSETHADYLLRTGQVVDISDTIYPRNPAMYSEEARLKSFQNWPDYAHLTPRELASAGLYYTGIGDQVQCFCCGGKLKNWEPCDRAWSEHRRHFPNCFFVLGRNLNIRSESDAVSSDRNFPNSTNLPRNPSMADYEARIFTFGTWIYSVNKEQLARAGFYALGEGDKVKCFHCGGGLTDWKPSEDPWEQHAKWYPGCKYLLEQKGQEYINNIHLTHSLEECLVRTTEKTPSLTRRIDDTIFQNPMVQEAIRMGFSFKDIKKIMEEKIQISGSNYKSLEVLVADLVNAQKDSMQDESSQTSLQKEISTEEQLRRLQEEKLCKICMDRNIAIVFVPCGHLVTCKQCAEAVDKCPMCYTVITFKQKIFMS
BIRC3, sequence (Q13489 whole entry, the tested form may be a part): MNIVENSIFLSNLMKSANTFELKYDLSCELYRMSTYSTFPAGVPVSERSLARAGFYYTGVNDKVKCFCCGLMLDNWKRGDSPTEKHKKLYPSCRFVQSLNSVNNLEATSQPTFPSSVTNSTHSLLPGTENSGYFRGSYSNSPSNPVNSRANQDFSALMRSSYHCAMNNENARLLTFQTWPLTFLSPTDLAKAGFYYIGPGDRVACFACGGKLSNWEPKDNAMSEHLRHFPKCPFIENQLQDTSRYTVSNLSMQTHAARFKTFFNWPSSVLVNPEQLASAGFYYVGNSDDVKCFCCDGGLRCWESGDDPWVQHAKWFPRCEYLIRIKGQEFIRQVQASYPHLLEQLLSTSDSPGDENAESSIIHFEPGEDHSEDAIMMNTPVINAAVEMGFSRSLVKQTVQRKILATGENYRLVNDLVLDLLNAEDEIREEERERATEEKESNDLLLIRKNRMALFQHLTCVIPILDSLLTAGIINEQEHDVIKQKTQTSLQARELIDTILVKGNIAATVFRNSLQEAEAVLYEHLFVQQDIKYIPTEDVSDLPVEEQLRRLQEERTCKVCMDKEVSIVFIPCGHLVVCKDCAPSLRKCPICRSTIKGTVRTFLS
BIRC2 BIR3, sequence (Q13490 251-372): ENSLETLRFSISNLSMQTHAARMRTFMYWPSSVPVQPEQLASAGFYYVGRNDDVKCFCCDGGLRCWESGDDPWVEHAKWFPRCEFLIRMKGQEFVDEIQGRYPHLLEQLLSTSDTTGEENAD
BIRC2, sequence (Q13490 whole entry, the tested form may be a part): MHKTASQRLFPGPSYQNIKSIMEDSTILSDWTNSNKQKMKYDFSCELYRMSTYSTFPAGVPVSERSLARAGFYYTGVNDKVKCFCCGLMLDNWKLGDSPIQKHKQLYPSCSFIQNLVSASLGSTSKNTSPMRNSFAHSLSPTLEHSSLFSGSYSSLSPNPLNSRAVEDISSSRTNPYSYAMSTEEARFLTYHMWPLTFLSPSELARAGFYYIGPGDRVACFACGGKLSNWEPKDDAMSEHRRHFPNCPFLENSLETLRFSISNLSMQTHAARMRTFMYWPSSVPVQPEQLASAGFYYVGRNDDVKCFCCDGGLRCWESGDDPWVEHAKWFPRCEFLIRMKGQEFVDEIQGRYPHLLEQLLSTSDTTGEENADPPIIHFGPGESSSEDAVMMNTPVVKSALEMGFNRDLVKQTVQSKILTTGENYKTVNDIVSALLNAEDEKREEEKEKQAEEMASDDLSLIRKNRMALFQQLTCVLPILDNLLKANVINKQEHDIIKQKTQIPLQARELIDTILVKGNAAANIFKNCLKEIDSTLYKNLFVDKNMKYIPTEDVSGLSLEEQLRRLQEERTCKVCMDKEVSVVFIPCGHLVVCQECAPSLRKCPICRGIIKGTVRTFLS
BIRC3 BIR3, sequence (Q13489 236-360): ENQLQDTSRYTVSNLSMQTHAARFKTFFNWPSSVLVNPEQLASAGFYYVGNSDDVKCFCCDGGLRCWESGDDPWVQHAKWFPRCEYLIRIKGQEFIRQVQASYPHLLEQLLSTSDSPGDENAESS
BIRC3 BIR2, sequence (Q13489 147-253): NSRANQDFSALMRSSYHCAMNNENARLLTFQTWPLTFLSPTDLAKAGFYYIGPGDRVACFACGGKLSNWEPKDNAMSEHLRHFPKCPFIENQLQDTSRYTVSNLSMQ

Ki (BIRC2-BIR3 domain [1]): 2.3 ± 0.3 nM
EC50 (BIRC4): 79.6 ± 37.5 nM
EC50 (BIRC3 BIR3): 4.1 ± 0.1 nM
Kd (BIRC2-BIR3 domain [2]): 41.1 ± 2.9 nM
EC50 (BIRC3): 81.1 ± 14.8 nM
EC50 (BIRC3 BIR2): 28.5 ± 3.2 nM
EC50 (BIRC2 BIR3): 23 ± 14.4 nM
EC50 (BIRC7 BIR): 16.1 ± 6.3 nM
EC50 (BIRC7): 8 ± 0.3 nM
EC50 (BIRC8): 76.3 ± 0.1 nM
EC50 (BIRC8 BIR): 85.5 ± 11.1 nM
EC50 (BIRC1 BIR[2]): 776 ± 200 nM
melting temperature of BIRC2 BIR3 domain with compound (BIRC2-BIR3 domain [4]; native domain ∼74°C): 92 °C
ΔTm at 40 µM (BIRC2-BIR3 domain [4]; read-out: DSF Assay ΔTm): 18 °C
ΔTm [°C] (Supplementary Table S1) (BIRC2-BIR3 domain [4]; first column): 18.2 °C
ΔTm [°C] (Supplementary Table S1) (BIRC2-BIR3 domain [4]; third column): 17.9 °C
EC50 (BIRC2): 192 ± 99.3 nM
EC50 (BIRC2 BIR2): 171 ± 151 nM
Molecule: CN[C@@H](C)C(=O)N[C@H](C(=O)N1CCC[C@H]1C(=O)N[C@H]1c2ccccc2C[C@H]1OCC#CC#CCO[C@@H]1Cc2ccccc2[C@@H]1NC(=O)[C@@H]1CCCN1C(=O)[C@@H](NC(=O)[C@H](C)NC)C1CCCCC1)C1CCCCC1 [AZD5582]
Ki (BIRC2-BIR3 domain [3]; calculated from IC50, ref Hennessy et al. (2013)): 6.4 ± 4.3 nM

Ki (BIRC2-BIR3 domain [1]; BIRC2 BIR3 domain, Cheng-Prusoff from IC50, mean ± SD, n = 3): 8.4 ± 0.7 nM
EC50 (BIRC4; read-out: EC50 ± SEM NanoBRET BIRC4, full-length, HEK293T, n = 4): 900 ± 100 nM
EC50 (BIRC3 BIR3; read-out: EC50 ± SEM NanoBRET BIRC3 BIR3, single domain, HEK293T, n = 4): 1700 ± 400 nM
ITC TΔS (BIRC2-BIR3 domain [2]): 6.94 ± 0.1 kcal/mol
Kd (BIRC2-BIR3 domain [2]): 24.8 ± 8.5 nM
EC50 (BIRC3; read-out: EC50 ± SEM NanoBRET BIRC3, full-length, HEK293T, n = 4): 800 ± 100 nM
EC50 (BIRC3 BIR2; read-out: EC50 ± SEM NanoBRET BIRC3 BIR2, single domain, HEK293T, n = 4): 18000 ± 25200 nM
EC50 (BIRC2 BIR3; read-out: EC50 ± SEM NanoBRET BIRC2 BIR3, single domain, HEK293T, n = 4): 800 ± 100 nM
EC50 (BIRC7 BIR; read-out: EC50 ± SEM NanoBRET BIRC7 BIR, single domain, HEK293T, n = 4): 2700 ± 800 nM
EC50 (BIRC7; read-out: EC50 ± SEM NanoBRET BIRC7, full-length, HEK293T, n = 4): 2600 ± 800 nM
EC50 (BIRC8; read-out: EC50 ± SEM NanoBRET BIRC8, full-length, HEK293T, n = 4): 2600 ± 200 nM
EC50 (BIRC8 BIR; read-out: EC50 ± SEM NanoBRET BIRC8 BIR, single domain, HEK293T, n = 4): 3000 ± 100 nM
EC50 (BIRC1 BIR[2]; read-out: EC50 ± SEM NanoBRET BIRC1 BIR[2], single domain, HEK293T, n = 4): 10900 ± 2100 nM
Mean, ΔTm [°C] (Supplementary Table S1) (BIRC2-BIR3 domain [4]; mean of n=3, difference to DMSO control): 9.1 °C
ΔTm [°C] (Supplementary Table S1) (BIRC2-BIR3 domain [4]; first column): 9.1 °C
ΔTm [°C] (Supplementary Table S1) (BIRC2-BIR3 domain [4]; second column): 9.1 °C
ΔTm [°C] (Supplementary Table S1) (BIRC2-BIR3 domain [4]; third column): 9.1 °C
EC50 (BIRC2; read-out: EC50 ± SEM NanoBRET BIRC2, full-length, HEK293T, n = 4): 500 ± 100 nM
EC50 (BIRC2 BIR2; read-out: EC50 ± SEM NanoBRET BIRC2 BIR2, single domain, HEK293T, n = 4): > 50000 nM
EC50 ± SEM NanoBRET BIRC2 BIR2 (BIRC2 BIR2; single domain, HEK293T, n = 4): did not show any binding
Molecule: CN[C@@H](C)C(=O)N[C@H](C(=O)N1CCC[C@H]1C(=O)N[C@H](C(=O)NCCCCCCNC(=O)[C@@H](NC(=O)[C@@H]1CCCN1C(=O)[C@@H](NC(=O)[C@H](C)NC)C1CCCCC1)C(c1ccccc1)c1ccccc1)C(c1ccccc1)c1ccccc1)C1CCCCC1 [BV-6] (I: H-[NMeA][Chg]P[Dip] / II: H-[NMeA][Chg]P[Dip]; linker I:C-II:C via Hexamethylenediamine)
Ki (BIRC2-BIR3 domain [3]; ref Varfolomeev et al. (2007)): 169 nM

Kd [5]: 14.9 nM
B1: fluorescently labeled SMAC probe (AVPIAQKSEK-K(5-FAM)-NH2) (peptide)
peptide: AVPIAQKSEKK
modifications: 5-FAM on the C-terminal lysine (K(5-FAM)); C-terminal amide (NH2)
notes: two lysines that follow the SMAC stretch; the last one carries 5-FAM; Probably a synthetic peptide; also called fluorescent SMAC mimetic; tracer

From publication PMC9204419, “A Toolbox for the Generation of Chemical Probes for Baculovirus IAP Repeat Containing Proteins” (Frontiers in Cell and Developmental Biology, 2022)
